The results in this text go back to patent US20180161388A1, “SUBSTANCE P, MAST CELL DEGRANULATION INHIBITORS, AND PERIPHERAL NEUROPATHY” (Beth Israel Deaconess Medical Center, Inc., priority 2015, published 2018).

One test relates to wounds. Put plainly: Topical wound SP treatment in MC deficient mice (wound healing). The class given is in vivo. As to conditions: compared with WT mice. An excerpt: Combined topical treatment with SP and an MC stabilization agent should have an additive, if not synergistic, effect in preventing and reversing SFN.
The test system of test [1] is intraepidermal nerve fibers. In words: Intraepidermal nerve fiber density (IENFD) in normal skin adjacent to wounds. Type of test: in vivo, mice. Here is the method: In a blinded mode, the IENFD in normal skin areas adjacent to wounds in non-DM and DM not-treated and treated with topical SP application for a 10-day period as described above (FIGS. 13 and 14) was evaluated. […] Similar results were found in preliminary studies that evaluated the effect of MC stabilization with DSCG. More specifically, DSCG treatment in two DM mice tended to have a beneficial effect in IENFD (151±55 fibers/mm) compared to four non-treated DM mice (55±17, p<0.05). Initial observations in TAC1KO mice also indicated reduced IENFD (28±12, n=2 mice) that improved in a similar way as with the previous experiments following SP treatment (41±16, n=2).

The subject of the next test is 6 mm excisional wounds. In words: Daily topical SP in 6 mm excisional wounds: IL-6 expression and M1/M2 ratio. Type of test: in vivo, mice. The source says:
Daily topical Substance P (SP) application in 6 mm excisional wounds created at the back of non-DM and STZ-DM mice increased the IL-6 expression and M1/M2 ratio three days after wounding, imitating the acute inflammatory phase of wound healing in acute wounds (FIG. 12). However, at Day-10, SP reduced both these inflammatory factors in STZ-DM mice, which was increased when compared to non-DM mice.

A further test concerns M1 and M2 macrophages. In words: M1/M2 macrophage ratio in skin after 10-day intraperitoneal DSCG. Type of test: in vivo, mice. The settings on record: measured ten days after treatment completion. Here is the method:
The number of HLA-DR^+/CD68^+ (M1−) and CD206/CD68^+ (M2−) macrophages in the skin of DM patients and non-DM subjects were evaluated by immunofluorescence following previously defined methods. See e.g., J Peripher Nery Syst 2008; 13:218-27, Handbook of clinical neurology 2013; 115:115-36, Immunol Rev 2007; 217:65-78, Proc Natl Acad Sci USA 2006; 103:7759-64, and Nature 1982; 297:229-31. […] The gene expression of M1-associated pro-inflammatory cytokines, such as TNF-α (FIG. 4, panel a) and IL-1β (FIG. 4, panel b), was also elevated in the foot skin of diabetes mellitus patients, whereas the M2-associated anti-inflammatory cytokine IL-10 was reduced (FIG. 4, panel c).
Using the same methods as in the human samples described above, an increased M1/M2 ratio in C57BL/6J STZ-DM mice was observed. […] Both non-DM and STZ-DM KO mice and their normal littermates were tested.
The effect of a 10-day disodium cromoglycate (DSCG) intraperitoneal administration was evaluated in non-DM and STZ-DM C57B16 mice that were also tested for their wound healing capacity.

A further test relates to mast cells (MC). Put plainly: Toluidine blue count of degranulated mast cells in dorsal skin biopsies of STZ-DM mice. Type of test: in vivo. The settings on record: STZ-DM C57Bl6 mice, 8-weeks DM, ten days intraperitoneal treatment. The protocol:
The number of intact or non-degranulated and degranulated MC in dorsal skin biopsies from non-DM and STZ-DM C57B16 mice with 8-weeks DM were evaluated by toluidine blue staining. Sections were stained metachromatically with 0.1% toluidine blue, pH 2 (cytoplasmic granules appear purple on a blue background). […] See e.g., J Peripher Nery Syst 2008; 13:218-27, Handbook of clinical neurology 2013; 115:115-36, Immunol Rev 2007; 217:65-78, Proc Natl Acad Sci USA 2006; 103:7759-64, and Nature 1982; 297:229-31. Non-DM and STZ-DM mice were also treated for ten days intraperitoneally with the MC stabilizer disodium cromoglycate (DSCG). […] However, the number of extensively degranulated MC was increased whereas the number of non-degranulated cells was reduced in STZ-DM mice compared to the non-DM controls.

Where [2] appears, read: STZ-DM mice, Day-10, listed as SP.
Where [3] appears, read: non-DM and STZ-DM mice, three days after wounding.
Setting [4] is: non-DM and STZ-DM mice, three days after wounding, listed as SP.

Entries after “also recorded” stand apart in the source; their conditions may differ. Where no end group is shown, it is not given here.

As to “Substance P (RPKPQQFFGLM-NH2; ends and bridges not checked; UniProt P20366 58-68, looked up) [neuropeptide Substance P (SP), acts through the NK1 receptor]”, in the test on wounds, the “effect on wound healing” value is “lacks the beneficial effects”. Moreover, the IENFD entry in test [1] (DM mice, topical application for 10 days, periwound normal skin, listed as SP) is listed as “returned to normal levels; also recorded: increased IENFD to levels similar to the non-DM mice”; in test [1] (TAC1KO mice after SP treatment (n=2), initial observations, untreated 28±12), 41±16 fibers/mm; in test [1] (non-DM mice, topical application for 10 days, periwound normal skin, listed as SP), “did not affect IENFD; also recorded: no obvious effect”. Further, the “IL-6 expression in wounds” value is given as “reduced the chronic inflammation” in the test with 6 mm excisional wounds (setting [2]), “increased” in the test on 6 mm excisional wounds (setting [3]) and “induced an acute inflammatory response” in the test on 6 mm excisional wounds (setting [4]). Further, the “M1/M2 ratio in wounds” value was “reduced the chronic inflammation” in the test on 6 mm excisional wounds (setting [2]), “increased” in the test on 6 mm excisional wounds (setting [3]) and “induced an acute inflammatory response” with 6 mm excisional wounds (setting [4]).

As to `O=C([O-])c1cc(=O)c2c(OCC(O)COc3cccc4oc(C(=O)[O-])cc(=O)c34)cccc2o1.[Na+].[Na+]` [DSCG, disodium cromoglycate], the M1/M2 macrophage ratio result is “drastically reduces it in STZ-DM to normal levels; also recorded: reduced the ratio to levels similar to the non-DM mice; also recorded: reduces the M1/M2 ratio to normal levels” with M1 and M2 macrophages (STZ-DM C57Bl6 mice); “no effect” in the test with M1 and M2 macrophages (non-DM C57Bl6 mice). Besides, the IENFD in test [1] (DM mice treated with DSCG (two mice), preliminary study, non-treated DM 55±17) is 151±55 fibers/mm. The “number of degranulated MC in skin” value with mast cells (MC) is “effectively reduce the number of degranulated cells”.
